According to EPA's ToxValDB 9.5 (doi:10.2903/j.efsa.2005.45r):

Experiments:
Aphidius rhopalosiphi = conditions: acute; duration: 7 days; mortality
Apis mellifera = conditions: acute; duration: 48 hours; oral; unspecified; mortality
Canidae = conditions: subchronic; duration: 90 days; oral; Dog Other; body weight
Chrysoperla externa = conditions: not reported; mortality
Colinus virginianus = conditions: oral
Daphnia magna = conditions: chronic/long-term; duration: 21 days; reproduction
Rattus norvegicus = conditions: for NOAEL: chronic
Tagia sp. = conditions: acute; mortality
[1] = short-term, oral, feed, mortality

CCS(=O)(=O)c1cccnc1S(=O)(=O)NC(=O)Nc1nc(OC)cc(OC)n1 [Rimsulfuron]
LD50 (Anas platyrhynchos; acute, oral, unspecified, mortality): > 2250 mg/kg | NOAEL (Anas platyrhynchos; reproductive): 1250 mg/kg | NOEC (Anas platyrhynchos; short-term, oral, feed): 5620 mg/kg | LC50 (Anas platyrhynchos; [1]): > 5620 mg/kg | LD50 (Anas platyrhynchos; [1]): > 1610 mg/kg-day | LEL (Aphidius rhopalosiphi): < 37.5 g/ha | LD50 (Apis mellifera): > 100 µg/piece | NOAEL (Canidae): 9.63 mg/kg-day | LEL (Chrysoperla externa): 37500 g/ha | LC50 (Colinus virginianus; acute, diet, mortality): > 5620 mg/kg | LD50 (Colinus virginianus; acute, mortality): > 2250 mg/kg | NOEC (Colinus virginianus; short-term, diet): 5620 mg/kg-day | NOEC (Daphnia magna): 1 mg/L | LC50 (Oncorhynchus mykiss; acute, duration: 96 hours, mortality): > 390 µg/mL | NOEC (Oncorhynchus mykiss; chronic/long-term, duration: 21 days, growth): 125 mg/L | LD50 (Rattus norvegicus; acute, oral, mortality): > 5000 mg/kg | NOAEL (Rattus norvegicus): 3000 mg/kg-day | NOAEL (Rattus norvegicus; duration: 2 years, oral, body weight): 11.8 mg/kg-day | LC50 (Tagia sp.): > 1000 mg/kg
